In US20010051652A1, “Method of treating paralysis of the extremities caused by cerebral infarction” (Ajinomoto Co., Inc., priority 1999, published 2001):

Assays:
[1] = tested on: male Wister rats; assay: Adduction/pronation of the left upper limb after middle cerebral artery ischemia-reperfusion; assay type: in vivo, rat; conditions: for Adduction/pronation, during ischemia (rats affected/total): baseline before melatonin administration
From the text: (§1) Eight to ten-week-old male Wister rats weighing of 250 to 300 g were used. Under halothane anesthesia, a 24 G (24 gauge) plug was inserted from a right external carotid artery of each rat so as to arrive to a starting site of its middle cerebral artery of the circle of Willis through its internal carotid artery. Immediately, the anesthesia was stopped, and the rat was dehypnotized. It was confirmed that the rat rotated clockwise, had ischemia, and had paralysis of its left upper limb. After one hour, the plug was removed from the rat under halothane anesthesia, and the blood flow was thereby reperfused. In the melatonin administration group, 1 ml of a physiological saline solution containing 6 mg/kg of melatonin was injected using a probe into the stomach of each rat each day for 10 days starting 24 hours after the reperfusion. In the control group, 1 ml of a physiological saline solution was similarly injected into each rat. After 19 days, the presence of adduction/pronation of the left upper limb and the clockwise rotation were determined for each rat. To assess the adduction/pronation of the left upper limb, each rat was hung via its tail, and the movement of the left upper limb was observed. If the rat could not voluntarily move the left upper limb, and had paralysis of the left upper limb, the left upper limb was considered to show adduction/pronation. In an experiment similar to that as described in Example 1, the adduction/pronation of the left upper limb and the clockwise rotation were determined 11 days after the ischemic incidence.

[2] = tested on: male Wister rats; assay: Clockwise rotation after middle cerebral artery ischemia-reperfusion; assay type: in vivo, rat; conditions: for Clockwise rotation, during ischemia (rats affected/total): baseline before melatonin administration
From the text: as §1, with “clockwise rotation,” for “adduction/pronation of the left upper limb,”, “placed on a round plate 2 m in diameter for 5 minutes.” for “hung via its tail, and the movement of the left upper limb was observed.”, “rat” for “rat could not voluntarily move the left upper limb, and”, “it rotated clockwise.” for “the left upper limb was considered to show adduction/pronation.”

[3] = tested on: male Wister rats; assay: Area of the cerebral infarcted lesion; assay type: in vivo, rat; conditions: Example 3; rats of Example 2, after 11 days; section showing maximum lesion
Experimental: Using the rats from the experiment of Example 2, the area of the cerebral infarcted lesion in each rat after 11 days was determined. The area of the cerebral infarcted lesion was determined by preparing a consecutive section of 50 μm from a cerebral infarcted region of about 3 mm and subjecting the section showing a maximum lesion to the NIH measurement program to determine the area of the maximum lesion.

[4] = cited from earlier work
[5] = tested on: CAl hippocampal neurons; conditions: intraperitoneally administered, especially prior to cerebral ischemia or during reperfusion; cited from earlier work
[6] = Example 1, 6 mg/kg into the stomach each day for 10 days starting 24 hours after reperfusion
[7] = Example 2, experiment similar to Example 1

COc1ccc2[nH]cc(CCNC(C)=O)c2c1 [Melatonin, N-[2-(5-methoxy-1H-indol-3-yl)ethyl]acetamide]
Adduction/pronation, 19 days after ischemia (rats affected/total) [1, 6]: 1/4 | Adduction/pronation, during ischemia (rats affected/total) ([1]; Example 1): 4/4 | Adduction/pronation, during ischemia (rats affected/total) ([1]; Example 2): 7/7 | Adduction/pronation, 11 days after ischemia (rats affected/total) [1, 7]: 3/7 | Clockwise rotation, 19 days after ischemia (rats affected/total) [2, 6]: 1/4 | Clockwise rotation, during ischemia (rats affected/total) ([2]; Example 1): 4/4 | Clockwise rotation, during ischemia (rats affected/total) ([2]; Example 2): 7/7 | Clockwise rotation, 11 days after ischemia (rats affected/total) [2, 7]: 0/7 | Area of the infarcted lesion, cerebral cortex [3]: 5.47 mm^2 | Area of the infarcted lesion, striatum [3]: 7.15 mm^2 | passage into the brain ([4]; intravenously administered): pass into the brain | passage through the blood-brain barrier ([4]; orally administered): passes through the blood-brain barrier | protection of CAl hippocampal neurons against ischemic injury [5]: protects CAl hippocampal neurons against ischemic injury
